The target of the test is T1, human TAS1R2-WT/TAS1R3-G367C (Homo sapiens, UniProt Q7RTX0+Q8TE23, G367C).
T1 construct: expressed in transfected cells; host or cells: HEK293T stably expressing Gα16gust44
T1 sequence (Q8TE23 20-839): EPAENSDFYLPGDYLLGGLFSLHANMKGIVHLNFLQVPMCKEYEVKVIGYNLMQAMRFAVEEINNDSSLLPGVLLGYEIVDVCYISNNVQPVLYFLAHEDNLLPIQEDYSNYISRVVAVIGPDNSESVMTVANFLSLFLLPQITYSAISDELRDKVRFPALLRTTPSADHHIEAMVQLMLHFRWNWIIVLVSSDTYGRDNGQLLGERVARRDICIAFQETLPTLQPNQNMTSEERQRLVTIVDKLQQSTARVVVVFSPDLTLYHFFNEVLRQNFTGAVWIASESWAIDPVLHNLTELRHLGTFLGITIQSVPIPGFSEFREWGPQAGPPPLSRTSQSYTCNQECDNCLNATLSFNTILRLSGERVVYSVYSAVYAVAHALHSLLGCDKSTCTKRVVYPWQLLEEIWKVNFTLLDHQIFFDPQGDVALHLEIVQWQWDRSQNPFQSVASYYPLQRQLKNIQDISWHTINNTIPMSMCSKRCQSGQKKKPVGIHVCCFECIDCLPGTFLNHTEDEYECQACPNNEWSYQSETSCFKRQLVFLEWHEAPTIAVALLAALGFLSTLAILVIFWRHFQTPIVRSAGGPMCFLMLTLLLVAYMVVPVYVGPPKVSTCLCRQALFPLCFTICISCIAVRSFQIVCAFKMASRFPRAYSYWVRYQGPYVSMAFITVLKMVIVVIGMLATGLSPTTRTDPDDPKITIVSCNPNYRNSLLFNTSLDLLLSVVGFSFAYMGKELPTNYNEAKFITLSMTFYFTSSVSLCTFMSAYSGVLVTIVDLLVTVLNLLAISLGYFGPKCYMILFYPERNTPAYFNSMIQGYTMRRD
T1 sequence (Q7RTX0 21-852 G367C): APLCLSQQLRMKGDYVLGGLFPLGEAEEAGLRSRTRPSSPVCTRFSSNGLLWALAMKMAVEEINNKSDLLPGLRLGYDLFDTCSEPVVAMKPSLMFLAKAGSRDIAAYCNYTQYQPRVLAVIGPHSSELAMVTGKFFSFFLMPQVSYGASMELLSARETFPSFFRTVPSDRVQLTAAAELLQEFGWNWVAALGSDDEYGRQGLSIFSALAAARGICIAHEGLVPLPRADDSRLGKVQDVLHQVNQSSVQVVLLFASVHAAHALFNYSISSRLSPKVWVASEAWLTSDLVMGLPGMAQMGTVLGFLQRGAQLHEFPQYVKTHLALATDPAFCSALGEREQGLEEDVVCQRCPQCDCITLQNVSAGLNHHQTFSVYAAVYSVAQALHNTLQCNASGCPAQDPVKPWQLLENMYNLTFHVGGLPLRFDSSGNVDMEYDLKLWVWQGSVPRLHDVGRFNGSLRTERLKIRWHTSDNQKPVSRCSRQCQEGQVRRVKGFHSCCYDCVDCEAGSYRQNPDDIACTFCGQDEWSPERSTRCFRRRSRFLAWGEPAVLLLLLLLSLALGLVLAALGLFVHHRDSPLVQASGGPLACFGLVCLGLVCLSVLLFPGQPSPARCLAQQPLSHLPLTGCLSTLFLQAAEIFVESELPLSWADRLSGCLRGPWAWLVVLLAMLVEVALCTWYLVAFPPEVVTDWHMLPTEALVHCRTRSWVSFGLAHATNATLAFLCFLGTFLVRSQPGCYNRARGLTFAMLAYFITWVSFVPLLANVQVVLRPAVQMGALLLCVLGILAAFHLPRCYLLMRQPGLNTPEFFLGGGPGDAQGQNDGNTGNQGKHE
As to the kind of experiment: Calcium mobilisation assay, TAS1R2-WT with TAS1R3 variant G367C. The class given is cell-based. Conditions: for Max ΔF/F0: maximal signal amplitude. The text has this: The coding sequences for TAS1R2 and TAS1R3 were commercially synthesised, and the human codon was optimised for expression in human cells. The coding sequences of human TAS1R2 and TAS1R3 were subcloned and inserted into the mammalian expression vectors pcDNA6/myc-HisA and pcDNA4/myc-HisA (Invitrogen; Thermo Fisher Scientific; Illkirch, France) between the EcoRI and NotI restriction sites, generating the plasmids pcDNA6-TAS1R2 and pcDNA4-TAS1R3, respectively. To increase protein expression in mammalian cells, an upstream start codon was used, which was a sequence called MAX, corresponding to the QBI SP163 element also described in pcDNA4-HisMax (Invitrogen; Thermo Fisher Scientific; Illkirch, France). To measure the expression level of the receptor by immunohistochemistry, we used the FLAG sequence ([…]) in the C-terminal position, which encodes the FLAG tag epitope. SNP variants of TAS1R2 and TAS1R3 were constructed based on […], respectively, using site-directed mutagenesis (Genewiz; Leipzig, Germany).
The HEK293T cells were kindly provided by Jay P. Slack (Givaudan Flavors Corporation; Cincinnati, OH, USA). HEK293T cells stably transfected with Gα16gust44 [43, 67] were seeded in poly-D-lysine-coated clear-bottom black 96-well plates (0.35 × 10^5 cells/well) in high-glucose DMEM supplemented with 2 mM GlutaMAX, 10% dialysed foetal bovine serum with penicillin/streptomycin and G418 (400 μg/mL) at 37 °C and 6.3% CO2 in a humidified atmosphere as previously reported. […] As a negative control, HEK293T cells were mock-transfected with the empty expression vector. After a further 24 h of incubation, the HEK293T cells were washed with C1 buffer (130 mM NaCl, 5 mM KCl, 10 mM HEPES pH 7.4 and 2 mM CaCl2). The 96-well plates containing the cells were then stimulated with sweet-tasting compounds. […] Different concentration ranges were tested depending on the sweet compound injected. The Ca^2+ changes were expressed as fractional changes in fluorescent light intensity: ΔF/F = (F − F0)/F0, where F was the fluorescent light intensity at each point, and F0 was the value of emitted fluorescent light prior to stimulus application. To calculate dose–response relationships, the changes in fluorescence upon stimulus application were averaged, mock-subtracted and baseline-corrected. The dose–response data obtained were adjusted using a 4-parameter logistic equation. The half-maximal effective concentrations (EC50 values) and maximal signal amplitudes were calculated using SigmaPlot software (version 15.0) (Systat Software; San Jose, CA, USA).
For in vitro calcium mobilisation assay performed on hTAS1R2-SNPs, hTAS1R3-SNPs and mTAS1R3-I60T, 6 to 7 concentrations were tested for each sweet compound, plus buffer alone. All concentration–receptor combinations were measured in duplicate, and each experiment was repeated at least 4 times (8 wells/concentration). Results were expressed for each concentration as ΔF/F mean ± SEM and represented as dose–response curves.
(A change in cytosolic calcium serves as a functional read-out for many receptors and channels.)

Like-named read-outs stand apart in the source and are kept apart here. No end group written: not given here.

Usually EC50 stands for the concentration giving half of the maximal effect. For `C=C(C)[C@@H]1CC=C(/C=N/O)CC1` [Perillartine, perillartine], the “R1 = Variant EC50/WT EC50” value was determined as 2.3 and the “Max ΔF/F0” value was determined as 1.49 ± 0.24. The EC50 (read-out: EC50) amounted to 32 ± 17.1 µM.
As for `O=S(=O)(O)NC1CCCCC1` [Cyclamate, cyclamate], the concentration for a half-maximal effect (EC50) (read-out: EC50) stood at 2120 ± 34 µM.
For the molecule `C=C1C[C@@]23CC[C@H]4[C@@](C)(CCC[C@@]4(C)C(=O)O[C@@H]4O[C@H](CO)[C@@H](O)[C@H](O[C@@H]5O[C@H](CO)[C@@H](O)[C@H](O)[C@H]5O)[C@H]4O[C@@H]4O[C@H](CO)[C@@H](O)[C@H](O)[C@H]4O)[C@@H]2CC[C@]1(O[C@@H]1O[C@H](CO)[C@@H](O)[C@H](O[C@@H]2O[C@H](CO)[C@@H](O)[C@H](O)[C@H]2O)[C@H]1O[C@@H]1O[C@H](CO)[C@@H](O)[C@H](O)[C@H]1O)C3` [Rebaudioside M, rebaudioside M], the “R1 = Variant EC50/WT EC50” value was 1.2 and the “Max ΔF/F0” value came out at 0.35 ± 0.01. In addition, the EC50 (read-out: EC50) was 47.3 ± 1.9 µM.
As to `OC[C@H]1O[C@H](O[C@]2(CCl)O[C@H](CCl)[C@@H](O)[C@@H]2O)[C@H](O)[C@@H](O)[C@H]1Cl` [Sucralose], the “R1 = Variant EC50/WT EC50” value amounted to 1.7 and the “Max ΔF/F0” value is on record as 0.32 ± 0.01. Also, the 50% effective concentration (EC50) (read-out: EC50) was found to be 182 ± 7 µM.
The corresponding values for `CC1=CC(=O)NS(=O)(=O)O1` [Acesulfame K, acesulfame K] are 0.7, 0.06 ± 0.01 and 443 ± 121 µM.
For “brazzein (QDKCKKVYENYPVSKCQLANQCNYDCKLDKHARSGECFYDEKRNLQCICDYCEY; ends and bridges not checked; cysteine pairing not given here; UniProt P56552 1-54, looked up) [sweet-tasting protein obtained by recombinant production using the yeast Pichia pastoris]”, the “R1 = Variant EC50/WT EC50” value stood at 1.6 and the “Max ΔF/F0” value is reported as 0.72 ± 0.01. Also, the half-maximal effective concentration (EC50) (brazzein) turned out to be 181.7 ± 6.9 µg/mL.
Turning to thaumatin, the “R1 = Variant EC50/WT EC50” value worked out at 1.4 and the “Max ΔF/F0” value was found to be 0.52 ± 0.01.
Turning to `COC(=O)[C@H](Cc1ccccc1)NC(=O)[C@H](CC(=O)O)NCCC(C)(C)C` [Neotame], the “R1 = Variant EC50/WT EC50” value was found to be 1.6 and the “Max ΔF/F0” value turned out to be 0.31 ± 0.01. Further, the EC50 (read-out: EC50) was 1.95 ± 0.09 µM.
Consider `C[C@H](CC[C@@H](O[C@@H]1O[C@H](CO[C@@H]2O[C@H](CO)[C@@H](O)[C@H](O)[C@H]2O)[C@@H](O)[C@H](O)[C@H]1O[C@@H]1O[C@H](CO)[C@@H](O)[C@H](O)[C@H]1O)C(C)(C)O)[C@H]1CC[C@@]2(C)[C@@H]3CC=C4[C@@H](CC[C@H](O[C@@H]5O[C@H](CO[C@@H]6O[C@H](CO)[C@@H](O)[C@H](O)[C@H]6O)[C@@H](O)[C@H](O)[C@H]5O)C4(C)C)[C@]3(C)[C@H](O)C[C@]12C` [Mogroside V, mogroside V], for which the “R1 = Variant EC50/WT EC50” value turned out to be 2.6 and the “Max ΔF/F0” value was found to be 0.60 ± 0.02. Moreover, under “read-out: EC50”, the concentration for a half-maximal effect (EC50) was found to be 82.4 ± 5.2 µM.
Taken in the same sequence, the figures for `COc1ccc(CCC(=O)c2c(O)cc(O[C@@H]3O[C@H](CO)[C@@H](O)[C@H](O)[C@H]3O[C@@H]3O[C@@H](C)[C@H](O)[C@@H](O)[C@H]3O)cc2O)cc1O` [NHDC, neohesperidin dihydrochalcone] were 1.6, 0.75 ± 0.05 and 81.3 ± 13.1 µM.

B1: thaumatin (protein)
chain: ATFEIVNRCSYTVWAAASKGDAALDAGGRQLNSGESWTINVEPGTKGGKIWARTDCYFDDSGSGICKTGDCGGLLRCKRFGRPPTTLAEFSLNQYGKDYIDISNIKGFNVPMDFSPTTRGCRGVRCAADIVGQCPAKLKAPGGGCNDACTVFQTSEYCCTTGKCGPTEYSRFFKRLCPDAFSYVLDKPTTVTCPGSSNYRVTFCPTA
modifications: Eight disulfides
notes: sweet-tasting plant protein, E957
On to B1, for which the 50% effective concentration (EC50) (read-out: EC50) amounted to 14.8 ± 0.5 µM.
